{"source": "patent US11529295B2", "about": "“Oral care composition” (Church & Dwight Co., Inc., priority 2019, dated 2022)", "assay": "Fluoride Uptake Study, FDA monograph evaluation (FDA Method #40)", "set-up": "species or system bovine", "settings": "comparison between formulas, Tables 2 and 3", "description": "Formulas 1 and 2, according to Example 1 above, are assessed by Fluoride Uptake Study, FDA monograph evaluation (FDA Method #40). A Control Formula, Placebo Formula, and USP Toothpaste Standard Formula are also assessed for comparison.\nSound, upper, central, bovine incisors were selected and cleaned of all adhering soft tissue. A core of enamel 3 mm in diameter was prepared from each tooth by cutting perpendicular to the labial surface with a hollow-core diamond drill bit. This was performed under water to prevent overheating of the specimens. Each specimen was embedded in the end of a plexiglass rod (114″ diameter×2″ long) using methylmethacrylate. […]\nEach enamel specimen was then etched by immersion into 0.5 ml of 1M HC104 for 15 seconds. […] A sample of each solution was then buffered with TISAB to a pH of 5.2 (0.25 ml sample, 0.5 ml TISAB and 0.25 ml IN NaOH) and the fluoride content determined by comparison to a similarly prepared standard curve (1 ml std and 1 ml TISAB). For use in depth of etch calculation, the Ca content of the etch solution was determined by taking 50μl and analyzing for Ca by atomic absorption (0.05 ml qs to 5 ml). […]\nThe treatments were performed using supernatants of the dentifrice slurries. […] One layer of enamel was then removed from each specimen and analyzed for fluoride and calcium as outlined above (i.e., 15 second etch). […]", "data": [{"smiles": "O.O.O.O=C([O-])CC(O)(CC(=O)[O-])C(=O)[O-].O=C([O-])CC(O)(CC(=O)[O-])C(=O)[O-].[Zn+2].[Zn+2].[Zn+2]", "note": "[zinc citrate trihydrate]", "values": [{"measurement": "enamel fluoride uptake, comparison in words", "result": "will not have a significant negative impact on Enamel Fluoride Uptake"}]}]}
